The record followed here is ChEMBL document CHEMBL1201862, “PubChem BioAssay data set” (2004).

Calls of active or inactive are those of the source.

Assay [1] concerns the target Macrophage colony-stimulating factor 1 receptor (Homo sapiens, UniProt P07333). It counts as functional.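 Also: value comes from the Navigating the Kinome screening panel, CSF1R member.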
Assay [2] addresses Serine/threonine-protein kinase PAK 4 (Homo sapiens, UniProt O96013). It counts as functional.
Assay [3] deals with Serine/threonine-protein kinase TAO1 (Homo sapiens, UniProt Q7L7X3). It counts as functional.
Assay [4] deals with T1, cAMP-dependent protein kinase catalytic subunit PRKX (Homo sapiens, UniProt P51817).
T1 sequence (P51817 whole entry): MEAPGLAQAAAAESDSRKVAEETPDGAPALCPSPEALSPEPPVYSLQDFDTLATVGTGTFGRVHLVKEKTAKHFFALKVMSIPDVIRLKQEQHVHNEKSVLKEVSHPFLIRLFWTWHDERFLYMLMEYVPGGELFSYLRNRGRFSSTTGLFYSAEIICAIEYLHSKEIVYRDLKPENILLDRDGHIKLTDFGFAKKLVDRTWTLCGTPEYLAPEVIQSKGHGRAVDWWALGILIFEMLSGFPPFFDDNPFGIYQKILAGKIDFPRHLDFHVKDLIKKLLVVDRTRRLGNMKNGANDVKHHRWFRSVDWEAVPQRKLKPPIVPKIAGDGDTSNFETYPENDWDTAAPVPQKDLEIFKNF
It counts as functional.

In another assay the target is T2, Aurora kinase A (Homo sapiens, UniProt O14965).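 Also: value from the Navigating the Kinome kinase panel profiling, panel entry STK6.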
T2 sequence (O14965 whole entry): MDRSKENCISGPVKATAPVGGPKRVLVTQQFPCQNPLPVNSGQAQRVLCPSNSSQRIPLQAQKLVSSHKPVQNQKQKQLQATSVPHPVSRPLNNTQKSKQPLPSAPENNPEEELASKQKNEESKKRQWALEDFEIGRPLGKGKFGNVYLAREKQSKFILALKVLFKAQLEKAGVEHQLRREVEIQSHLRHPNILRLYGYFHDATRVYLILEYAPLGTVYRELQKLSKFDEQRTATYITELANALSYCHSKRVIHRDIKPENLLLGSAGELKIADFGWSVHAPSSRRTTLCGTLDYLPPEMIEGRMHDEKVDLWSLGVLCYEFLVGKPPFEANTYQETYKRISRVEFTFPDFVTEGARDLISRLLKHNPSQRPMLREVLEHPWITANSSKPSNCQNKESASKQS
It counts as functional.

For assay [5], the target named is Tyrosine-protein kinase JAK2 (Homo sapiens, UniProt O60674). It counts as functional.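 Also: JAK2 tested as one member of a kinase panel.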
Assay [6] addresses Death-associated protein kinase 3 (Homo sapiens, UniProt O43293). It counts as functional.
Assay [7] relates to Streptococcus sp. 'group A'. In words: growth inhibition of control SK(-) GAS strain, dose response, counter-screen for streptokinase expression inhibitor project, luminescence, kanamycin, BacTiterGlo, confirmation (AID 1900). It counts as functional, organism-based. A general note: The purpose of a counterscreen is to sort out artefacts and off-target activity.
Assay [8] addresses T3, Apoptotic protease-activating factor 1 (Homo sapiens, UniProt O14727).
T3 sequence (O14727 whole entry): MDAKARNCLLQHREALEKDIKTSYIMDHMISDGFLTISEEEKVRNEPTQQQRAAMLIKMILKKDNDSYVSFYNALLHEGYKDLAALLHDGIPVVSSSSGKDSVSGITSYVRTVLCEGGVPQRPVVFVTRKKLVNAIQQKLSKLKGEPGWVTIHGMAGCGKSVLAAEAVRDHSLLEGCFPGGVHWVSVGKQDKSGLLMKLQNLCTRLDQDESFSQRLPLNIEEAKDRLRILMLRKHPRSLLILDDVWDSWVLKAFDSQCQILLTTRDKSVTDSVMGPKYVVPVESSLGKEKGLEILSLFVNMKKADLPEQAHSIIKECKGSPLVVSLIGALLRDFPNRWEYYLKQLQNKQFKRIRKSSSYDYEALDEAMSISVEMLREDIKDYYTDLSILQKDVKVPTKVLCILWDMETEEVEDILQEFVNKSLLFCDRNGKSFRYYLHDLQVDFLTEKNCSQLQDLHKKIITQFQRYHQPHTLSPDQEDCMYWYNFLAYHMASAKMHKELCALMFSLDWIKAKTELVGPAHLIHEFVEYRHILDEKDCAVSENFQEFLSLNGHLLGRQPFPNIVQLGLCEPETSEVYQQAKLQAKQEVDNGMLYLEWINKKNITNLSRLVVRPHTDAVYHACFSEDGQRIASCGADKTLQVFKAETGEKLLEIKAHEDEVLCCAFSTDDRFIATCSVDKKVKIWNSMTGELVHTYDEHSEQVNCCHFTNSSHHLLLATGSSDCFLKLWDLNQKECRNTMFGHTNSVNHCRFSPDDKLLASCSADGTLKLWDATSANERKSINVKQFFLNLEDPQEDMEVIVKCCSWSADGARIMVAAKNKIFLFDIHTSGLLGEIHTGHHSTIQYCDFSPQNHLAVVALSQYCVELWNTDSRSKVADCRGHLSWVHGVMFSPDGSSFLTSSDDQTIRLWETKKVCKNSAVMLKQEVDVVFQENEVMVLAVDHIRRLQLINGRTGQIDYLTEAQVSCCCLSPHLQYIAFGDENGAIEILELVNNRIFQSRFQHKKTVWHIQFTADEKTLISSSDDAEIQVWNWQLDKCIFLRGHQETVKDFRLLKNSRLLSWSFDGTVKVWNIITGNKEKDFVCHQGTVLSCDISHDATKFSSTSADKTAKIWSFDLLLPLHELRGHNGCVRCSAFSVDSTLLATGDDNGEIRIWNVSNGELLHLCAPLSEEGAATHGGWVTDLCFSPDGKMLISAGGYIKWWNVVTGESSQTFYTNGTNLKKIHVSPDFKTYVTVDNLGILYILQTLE
It counts as functional.

The next assay concerns the target T4, Caspase-3 (Homo sapiens, UniProt P42574).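 Also: Dose-response selectivity test against caspase-3 for candidate inhibitors of sentrin-specific proteases (SENPs).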
T4 sequence (P42574 whole entry): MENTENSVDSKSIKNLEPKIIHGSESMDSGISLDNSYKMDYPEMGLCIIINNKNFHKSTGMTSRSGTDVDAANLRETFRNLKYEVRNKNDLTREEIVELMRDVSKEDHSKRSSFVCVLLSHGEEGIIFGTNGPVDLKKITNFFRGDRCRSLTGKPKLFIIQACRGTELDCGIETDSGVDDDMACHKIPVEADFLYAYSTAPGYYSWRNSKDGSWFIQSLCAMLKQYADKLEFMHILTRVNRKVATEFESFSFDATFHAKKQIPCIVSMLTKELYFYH
It counts as functional.

Chain of Serine/threonine-protein kinase TAO1 (Q7L7X3 whole entry): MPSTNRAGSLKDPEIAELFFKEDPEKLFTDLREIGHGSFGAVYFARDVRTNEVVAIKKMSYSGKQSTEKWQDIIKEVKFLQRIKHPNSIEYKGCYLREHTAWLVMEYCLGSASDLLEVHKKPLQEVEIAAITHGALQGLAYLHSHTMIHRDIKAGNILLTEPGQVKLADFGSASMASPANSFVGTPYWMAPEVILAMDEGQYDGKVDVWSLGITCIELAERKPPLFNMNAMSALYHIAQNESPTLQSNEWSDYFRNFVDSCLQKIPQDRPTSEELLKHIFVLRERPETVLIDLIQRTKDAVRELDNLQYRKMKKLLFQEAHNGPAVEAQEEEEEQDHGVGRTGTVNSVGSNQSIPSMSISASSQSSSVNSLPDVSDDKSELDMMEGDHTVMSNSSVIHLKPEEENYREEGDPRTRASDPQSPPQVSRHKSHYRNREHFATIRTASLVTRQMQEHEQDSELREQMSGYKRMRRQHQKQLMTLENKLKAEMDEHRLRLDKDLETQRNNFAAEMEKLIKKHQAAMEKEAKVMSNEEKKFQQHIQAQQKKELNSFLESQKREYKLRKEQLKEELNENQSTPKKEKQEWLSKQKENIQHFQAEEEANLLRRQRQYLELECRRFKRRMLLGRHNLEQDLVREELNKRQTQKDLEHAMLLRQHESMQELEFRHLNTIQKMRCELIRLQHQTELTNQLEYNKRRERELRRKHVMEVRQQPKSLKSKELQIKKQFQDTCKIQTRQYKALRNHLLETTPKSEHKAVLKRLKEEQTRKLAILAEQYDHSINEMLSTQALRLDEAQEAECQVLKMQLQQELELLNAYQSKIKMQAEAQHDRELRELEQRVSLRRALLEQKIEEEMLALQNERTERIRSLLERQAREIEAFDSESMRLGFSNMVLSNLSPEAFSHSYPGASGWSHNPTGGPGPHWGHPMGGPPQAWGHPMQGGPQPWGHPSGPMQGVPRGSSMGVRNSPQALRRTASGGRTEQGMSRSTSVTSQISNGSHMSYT
Chain of Tyrosine-protein kinase JAK2 (O60674 whole entry): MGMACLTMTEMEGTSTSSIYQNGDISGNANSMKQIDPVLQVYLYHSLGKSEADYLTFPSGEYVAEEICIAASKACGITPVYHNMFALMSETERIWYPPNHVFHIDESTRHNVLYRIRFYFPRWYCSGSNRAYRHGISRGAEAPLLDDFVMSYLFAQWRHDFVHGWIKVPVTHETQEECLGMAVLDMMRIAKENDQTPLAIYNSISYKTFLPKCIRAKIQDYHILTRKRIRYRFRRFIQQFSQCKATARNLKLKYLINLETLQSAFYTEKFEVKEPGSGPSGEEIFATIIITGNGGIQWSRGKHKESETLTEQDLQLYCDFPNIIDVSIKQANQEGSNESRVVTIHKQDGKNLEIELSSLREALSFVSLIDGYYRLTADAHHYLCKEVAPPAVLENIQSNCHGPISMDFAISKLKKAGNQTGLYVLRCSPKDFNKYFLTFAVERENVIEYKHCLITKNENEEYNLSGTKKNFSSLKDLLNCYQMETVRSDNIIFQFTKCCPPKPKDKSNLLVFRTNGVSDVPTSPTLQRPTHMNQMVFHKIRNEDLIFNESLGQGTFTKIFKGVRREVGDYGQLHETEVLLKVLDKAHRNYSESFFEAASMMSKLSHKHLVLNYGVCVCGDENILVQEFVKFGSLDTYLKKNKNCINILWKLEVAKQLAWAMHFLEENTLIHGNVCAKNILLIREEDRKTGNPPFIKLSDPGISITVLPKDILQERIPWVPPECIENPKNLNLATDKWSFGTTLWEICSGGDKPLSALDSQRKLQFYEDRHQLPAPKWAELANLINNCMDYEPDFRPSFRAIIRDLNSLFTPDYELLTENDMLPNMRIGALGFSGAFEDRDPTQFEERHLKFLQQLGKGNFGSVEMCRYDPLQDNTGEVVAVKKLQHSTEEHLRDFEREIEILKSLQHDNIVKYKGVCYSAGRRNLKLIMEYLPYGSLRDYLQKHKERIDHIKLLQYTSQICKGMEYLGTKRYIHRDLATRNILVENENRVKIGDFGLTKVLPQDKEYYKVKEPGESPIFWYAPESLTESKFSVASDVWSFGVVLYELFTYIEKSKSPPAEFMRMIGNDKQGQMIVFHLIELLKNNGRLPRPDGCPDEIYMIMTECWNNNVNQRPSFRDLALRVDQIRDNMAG
Chain of Macrophage colony-stimulating factor 1 receptor (P07333 whole entry): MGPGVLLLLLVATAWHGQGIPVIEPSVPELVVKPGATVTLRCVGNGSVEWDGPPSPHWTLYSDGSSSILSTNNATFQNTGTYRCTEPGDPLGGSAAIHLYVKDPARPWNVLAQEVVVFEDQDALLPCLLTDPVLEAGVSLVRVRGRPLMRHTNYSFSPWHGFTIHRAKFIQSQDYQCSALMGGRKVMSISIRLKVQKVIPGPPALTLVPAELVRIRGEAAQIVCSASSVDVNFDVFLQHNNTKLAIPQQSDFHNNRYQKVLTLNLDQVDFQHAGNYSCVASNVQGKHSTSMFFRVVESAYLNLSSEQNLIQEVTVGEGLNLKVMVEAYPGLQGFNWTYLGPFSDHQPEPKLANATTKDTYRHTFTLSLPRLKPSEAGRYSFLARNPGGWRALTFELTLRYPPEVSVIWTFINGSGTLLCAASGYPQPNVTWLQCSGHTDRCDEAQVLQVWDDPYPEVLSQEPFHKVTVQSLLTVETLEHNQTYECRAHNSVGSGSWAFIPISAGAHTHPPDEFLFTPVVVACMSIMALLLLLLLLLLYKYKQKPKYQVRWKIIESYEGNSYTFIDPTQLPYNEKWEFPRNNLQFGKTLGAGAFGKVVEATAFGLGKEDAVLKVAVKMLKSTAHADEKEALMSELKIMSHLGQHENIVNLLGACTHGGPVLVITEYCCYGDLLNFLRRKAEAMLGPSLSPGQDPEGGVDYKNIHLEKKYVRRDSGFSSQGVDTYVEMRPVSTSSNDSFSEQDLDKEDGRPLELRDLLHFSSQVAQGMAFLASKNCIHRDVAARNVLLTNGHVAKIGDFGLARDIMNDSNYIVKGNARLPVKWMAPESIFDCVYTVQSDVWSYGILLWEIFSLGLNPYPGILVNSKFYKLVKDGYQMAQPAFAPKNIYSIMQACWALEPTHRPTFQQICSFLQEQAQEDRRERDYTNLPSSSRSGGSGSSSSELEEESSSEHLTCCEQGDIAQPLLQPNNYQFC
Chain of Death-associated protein kinase 3 (O43293 whole entry): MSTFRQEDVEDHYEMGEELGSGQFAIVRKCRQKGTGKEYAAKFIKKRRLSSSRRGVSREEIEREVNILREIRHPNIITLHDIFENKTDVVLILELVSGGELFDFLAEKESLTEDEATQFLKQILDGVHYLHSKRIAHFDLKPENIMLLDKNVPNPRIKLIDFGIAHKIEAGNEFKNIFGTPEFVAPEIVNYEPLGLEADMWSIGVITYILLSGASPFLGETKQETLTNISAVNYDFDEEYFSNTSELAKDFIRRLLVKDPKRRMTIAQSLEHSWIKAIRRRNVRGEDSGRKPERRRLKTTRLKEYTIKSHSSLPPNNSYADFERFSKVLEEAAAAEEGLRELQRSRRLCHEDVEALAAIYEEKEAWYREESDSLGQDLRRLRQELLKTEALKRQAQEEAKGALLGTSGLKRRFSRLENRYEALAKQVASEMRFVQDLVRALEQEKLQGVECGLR
Chain of Serine/threonine-protein kinase PAK 4 (O96013 whole entry): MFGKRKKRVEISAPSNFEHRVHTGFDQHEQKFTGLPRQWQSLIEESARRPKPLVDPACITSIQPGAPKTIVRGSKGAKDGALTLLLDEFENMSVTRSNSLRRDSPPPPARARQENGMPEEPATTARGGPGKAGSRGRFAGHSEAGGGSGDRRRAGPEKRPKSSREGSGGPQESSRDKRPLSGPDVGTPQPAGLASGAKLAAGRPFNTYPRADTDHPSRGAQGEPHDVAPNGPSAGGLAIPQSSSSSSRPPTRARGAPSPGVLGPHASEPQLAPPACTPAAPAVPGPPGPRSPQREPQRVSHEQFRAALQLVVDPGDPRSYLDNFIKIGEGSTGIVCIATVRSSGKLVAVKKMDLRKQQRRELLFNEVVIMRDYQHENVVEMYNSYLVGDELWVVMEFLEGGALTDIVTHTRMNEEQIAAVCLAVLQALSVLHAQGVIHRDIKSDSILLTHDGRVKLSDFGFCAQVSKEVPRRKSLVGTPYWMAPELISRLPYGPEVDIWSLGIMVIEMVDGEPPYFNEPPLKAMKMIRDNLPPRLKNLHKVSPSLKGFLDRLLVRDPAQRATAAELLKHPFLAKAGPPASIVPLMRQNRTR

What is called Ki is the dissociation constant of the complex between target and ligand, obtained from inhibition or displacement. For `CCn1c(-c2nonc2N)nc2cncc(C(=O)N3CCC(N)C3)c21` (stereo not given), the Ki was > 2510 nM (inactive) in assay [1]; > 5010 nM (inactive) in assay [2]; > 6310 nM (inactive) in assay [3]; 20 nM (active) in [4]; > 1580 nM (inactive) on Aurora kinase A; > 2510 nM (inactive) in assay [5]. Besides, the Ki in assay [6] was 79.4 nM (active).
In the case of `Cc1[nH]nc2ccc(-c3cncc(OCC(N)Cc4c[nH]c5ccccc45)c3)cc12` (stereo not given), the Ki was > 2510 nM (inactive) in [1]; 1580 nM (active) in [2]; > 10000 nM (inactive) in assay [3]; 63.1 nM (active) in assay [4]; > 1580 nM (inactive) at Aurora kinase A; > 1580 nM (inactive) in [5]. In [6], the Ki is 100 nM (active).
By EC50 is commonly meant the concentration giving half of the maximal effect. The term IC50 denotes the concentration that gives 50% inhibition. With `CCCCCCCCCCC[N+](C)(C)CC/C=C1/c2ccccc2Sc2ccc(Cl)cc21`, the EC50 in assay [7] is 1460 nM (active). In [8], the IC50 is 11600 nM (active).
In the case of `Cc1cc(C)c[n+](C2=C([N-]S(=O)(=O)c3cccs3)C(=O)c3ccccc3C2=O)c1`, the IC50 on Caspase-3 was 81900 nM (active). Moreover, the EC50 in assay [7] was 941 nM (active).
For the compound `COC(=O)c1ccccc1NC1=C/C(=N\S(=O)(=O)c2cccs2)c2ccccc2C1=O`, the IC50 on Caspase-3 is 68400 nM (active); in assay [8], 1820 nM (active).
